Measured values taken from PMC6848745 (Psychopharmacology, 2018).
Where “and” joins values, the source holds several entries; their conditions need not be identical. Equal values may be shown once.

Assays:
[1] = tested on: C57BL/6J mice; assay: Head twitch response; assay type: in vivo, mouse
[2] = tested on: human subjects; details: cited from earlier work
[3] = molecular target: T1, 5-HT2B (Homo sapiens, UniProt P41595); assay: NIMH PDSP competitive binding, 5-HT2B; details: [3H]LSD; cloned receptor; mean ± SEM
T1 sequence (P41595 whole entry): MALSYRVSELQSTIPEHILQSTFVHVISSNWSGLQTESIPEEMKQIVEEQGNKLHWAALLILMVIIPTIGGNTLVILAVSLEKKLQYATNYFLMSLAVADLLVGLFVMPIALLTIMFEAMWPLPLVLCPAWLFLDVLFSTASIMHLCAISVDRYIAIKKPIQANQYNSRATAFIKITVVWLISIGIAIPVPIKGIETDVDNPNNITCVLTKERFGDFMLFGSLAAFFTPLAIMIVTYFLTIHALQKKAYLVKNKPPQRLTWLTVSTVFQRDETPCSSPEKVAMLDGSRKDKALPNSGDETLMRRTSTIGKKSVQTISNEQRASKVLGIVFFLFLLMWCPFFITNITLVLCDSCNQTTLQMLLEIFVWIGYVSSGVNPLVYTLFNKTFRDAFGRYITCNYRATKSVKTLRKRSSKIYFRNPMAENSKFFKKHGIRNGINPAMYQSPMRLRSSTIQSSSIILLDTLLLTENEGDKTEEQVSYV

[4] = molecular target: H4 (Homo sapiens, UniProt Q9H3N8); assay: NIMH PDSP competitive binding, H4
Sequence of H4 (Q9H3N8 whole entry): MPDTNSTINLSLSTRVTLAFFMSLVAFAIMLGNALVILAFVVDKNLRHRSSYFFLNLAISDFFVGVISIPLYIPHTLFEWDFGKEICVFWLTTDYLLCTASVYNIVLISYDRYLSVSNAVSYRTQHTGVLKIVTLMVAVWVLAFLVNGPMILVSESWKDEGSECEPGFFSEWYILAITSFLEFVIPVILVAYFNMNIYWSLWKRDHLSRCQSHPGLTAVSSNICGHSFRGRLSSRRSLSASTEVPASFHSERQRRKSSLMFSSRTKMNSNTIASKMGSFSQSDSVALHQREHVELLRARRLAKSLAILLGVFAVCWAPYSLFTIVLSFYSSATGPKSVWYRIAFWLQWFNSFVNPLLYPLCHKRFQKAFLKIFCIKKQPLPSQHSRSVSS

[5] = molecular target: 5-HT5A (Homo sapiens, UniProt P47898); assay: NIMH PDSP competitive binding, 5-HT5A; details: [3H]LSD; cloned receptor; mean ± SEM
Sequence of 5-HT5A (P47898 whole entry): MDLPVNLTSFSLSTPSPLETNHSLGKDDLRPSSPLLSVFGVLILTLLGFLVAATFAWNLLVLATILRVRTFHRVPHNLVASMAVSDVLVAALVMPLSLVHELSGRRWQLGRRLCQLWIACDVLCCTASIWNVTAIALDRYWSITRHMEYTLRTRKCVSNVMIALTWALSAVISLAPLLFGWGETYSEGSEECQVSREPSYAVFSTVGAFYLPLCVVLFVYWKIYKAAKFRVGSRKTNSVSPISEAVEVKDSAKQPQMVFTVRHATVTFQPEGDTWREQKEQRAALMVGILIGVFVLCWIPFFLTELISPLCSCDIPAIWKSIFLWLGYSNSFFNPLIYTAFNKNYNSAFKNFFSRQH

[6] = molecular target: D1 (Homo sapiens, UniProt P21728); assay: NIMH PDSP competitive binding, D1; details: [3H]SCH23390; cloned receptor; mean ± SEM
[7] = molecular target: 5-HT1D (Homo sapiens, UniProt P28221); assay: NIMH PDSP competitive binding, 5-HT1D; details: [3H]GR125743; cloned receptor; mean ± SEM
[8] = molecular target: H1 (Homo sapiens, UniProt P35367); assay: NIMH PDSP competitive binding, H1
Sequence of H1 (P35367 whole entry): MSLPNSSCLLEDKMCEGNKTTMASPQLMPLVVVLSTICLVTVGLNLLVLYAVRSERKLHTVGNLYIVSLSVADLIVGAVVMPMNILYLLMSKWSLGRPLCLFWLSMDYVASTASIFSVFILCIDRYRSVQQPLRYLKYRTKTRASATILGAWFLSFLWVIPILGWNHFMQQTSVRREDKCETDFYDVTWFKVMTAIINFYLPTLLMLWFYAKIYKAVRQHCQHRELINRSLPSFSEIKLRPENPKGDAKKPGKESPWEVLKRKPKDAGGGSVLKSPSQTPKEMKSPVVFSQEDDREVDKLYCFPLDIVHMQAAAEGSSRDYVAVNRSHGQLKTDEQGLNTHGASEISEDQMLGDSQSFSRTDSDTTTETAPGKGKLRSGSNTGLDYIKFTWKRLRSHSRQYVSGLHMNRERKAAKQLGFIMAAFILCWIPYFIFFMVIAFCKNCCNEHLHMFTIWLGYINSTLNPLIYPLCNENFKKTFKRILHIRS

[9] = molecular target: β2 (Homo sapiens, UniProt P07550); assay: NIMH PDSP competitive binding, β2
Sequence of β2 (Homo sapiens, UniProt P07550) (P07550 whole entry): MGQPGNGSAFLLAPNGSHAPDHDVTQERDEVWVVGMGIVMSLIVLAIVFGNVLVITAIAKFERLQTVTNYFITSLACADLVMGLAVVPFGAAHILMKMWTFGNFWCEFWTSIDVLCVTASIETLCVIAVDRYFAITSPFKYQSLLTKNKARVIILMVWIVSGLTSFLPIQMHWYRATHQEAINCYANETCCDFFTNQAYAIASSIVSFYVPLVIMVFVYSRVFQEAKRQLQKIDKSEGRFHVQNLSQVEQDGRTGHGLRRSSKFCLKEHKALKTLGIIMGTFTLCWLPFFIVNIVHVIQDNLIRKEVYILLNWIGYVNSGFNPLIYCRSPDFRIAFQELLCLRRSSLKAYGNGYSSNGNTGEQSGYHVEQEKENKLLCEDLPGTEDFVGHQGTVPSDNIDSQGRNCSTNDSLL

[10] = molecular target: α1A (Homo sapiens, UniProt P35348); assay: NIMH PDSP competitive binding, α1A; details: [3H]prazosin; cloned receptor
[11] = molecular target: D4 (Homo sapiens, UniProt P21917); assay: NIMH PDSP competitive binding, D4; details: [3H]N-methylspiperone; cloned receptor; mean ± SEM
Sequence of D4 (P21917 whole entry): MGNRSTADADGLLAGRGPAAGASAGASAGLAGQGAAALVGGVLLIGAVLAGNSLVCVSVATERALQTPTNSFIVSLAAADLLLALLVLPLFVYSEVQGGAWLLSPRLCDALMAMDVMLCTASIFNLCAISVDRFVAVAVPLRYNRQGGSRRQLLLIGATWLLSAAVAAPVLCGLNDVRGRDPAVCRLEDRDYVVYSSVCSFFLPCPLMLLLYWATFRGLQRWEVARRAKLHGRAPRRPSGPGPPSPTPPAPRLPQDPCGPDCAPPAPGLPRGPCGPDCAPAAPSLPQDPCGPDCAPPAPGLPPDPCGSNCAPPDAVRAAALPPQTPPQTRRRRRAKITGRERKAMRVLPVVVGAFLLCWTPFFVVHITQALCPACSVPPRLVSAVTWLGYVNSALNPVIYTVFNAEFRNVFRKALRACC

[12] = molecular target: α2B (Homo sapiens, UniProt P18089); assay: NIMH PDSP competitive binding, α2B; details: [3H]rauwolscine; cloned receptor; mean ± SEM
[13] = molecular target: T1, 5-HT2B; assay: Gq-mediated calcium flux in HEK293 cells, h5-HT2B; assay type: cell-based
[14] = molecular target: β3 (Homo sapiens, UniProt P13945); assay: NIMH PDSP competitive binding, β3; details: [3H]CGP12177; cloned receptor; mean ± SEM
[15] = molecular target: 5-HT1A (Homo sapiens, UniProt P08908); assay: NIMH PDSP competitive binding, 5-HT1A; details: [3H]8-OH-DPAT; cloned receptor; mean ± SEM
[16] = molecular target: α1D (Homo sapiens, UniProt P25100); assay: NIMH PDSP competitive binding, α1D; details: [3H]prazosin; cloned receptor
[17] = molecular target: T2, human 5-HT2C INI (Homo sapiens, UniProt P28335); assay: Gq-mediated calcium flux in HEK293 cells, h5-HT2C; assay type: cell-based
T2 sequence (P28335 33-458): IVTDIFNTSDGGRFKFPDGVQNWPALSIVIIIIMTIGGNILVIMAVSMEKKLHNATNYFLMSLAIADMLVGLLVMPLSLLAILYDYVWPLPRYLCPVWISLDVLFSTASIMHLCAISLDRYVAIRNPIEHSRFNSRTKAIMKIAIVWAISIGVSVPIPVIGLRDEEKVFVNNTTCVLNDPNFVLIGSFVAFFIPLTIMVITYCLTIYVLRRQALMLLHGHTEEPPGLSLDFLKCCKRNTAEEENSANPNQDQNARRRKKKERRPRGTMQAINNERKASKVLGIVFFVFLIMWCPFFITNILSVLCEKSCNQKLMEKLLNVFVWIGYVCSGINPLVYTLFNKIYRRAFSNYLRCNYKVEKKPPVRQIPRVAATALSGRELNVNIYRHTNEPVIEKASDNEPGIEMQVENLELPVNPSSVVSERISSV

[18] = molecular target: 5-HT7 (Homo sapiens, UniProt P34969); assay: NIMH PDSP competitive binding, 5-HT7; details: [3H]LSD; cloned receptor; mean ± SEM
Sequence of 5-HT7 (P34969 whole entry): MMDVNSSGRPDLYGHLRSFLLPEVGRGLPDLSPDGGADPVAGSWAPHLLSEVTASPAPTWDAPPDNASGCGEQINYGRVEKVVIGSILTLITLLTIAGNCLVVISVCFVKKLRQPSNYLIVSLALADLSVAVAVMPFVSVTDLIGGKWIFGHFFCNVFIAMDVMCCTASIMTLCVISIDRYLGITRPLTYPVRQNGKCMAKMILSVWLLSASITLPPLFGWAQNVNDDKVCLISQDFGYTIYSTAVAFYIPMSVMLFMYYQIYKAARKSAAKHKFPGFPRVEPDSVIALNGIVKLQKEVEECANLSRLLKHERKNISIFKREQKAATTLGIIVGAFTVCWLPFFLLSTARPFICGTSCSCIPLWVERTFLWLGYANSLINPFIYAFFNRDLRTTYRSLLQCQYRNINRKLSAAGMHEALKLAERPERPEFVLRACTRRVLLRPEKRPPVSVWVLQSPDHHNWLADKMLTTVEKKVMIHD

[19] = molecular target: T3, 5-HT2A (Homo sapiens, UniProt P28223); assay: NIMH PDSP competitive binding, 5-HT2A; details: [3H]ketanserin; cloned receptor; mean ± SEM
T3 sequence (P28223 whole entry): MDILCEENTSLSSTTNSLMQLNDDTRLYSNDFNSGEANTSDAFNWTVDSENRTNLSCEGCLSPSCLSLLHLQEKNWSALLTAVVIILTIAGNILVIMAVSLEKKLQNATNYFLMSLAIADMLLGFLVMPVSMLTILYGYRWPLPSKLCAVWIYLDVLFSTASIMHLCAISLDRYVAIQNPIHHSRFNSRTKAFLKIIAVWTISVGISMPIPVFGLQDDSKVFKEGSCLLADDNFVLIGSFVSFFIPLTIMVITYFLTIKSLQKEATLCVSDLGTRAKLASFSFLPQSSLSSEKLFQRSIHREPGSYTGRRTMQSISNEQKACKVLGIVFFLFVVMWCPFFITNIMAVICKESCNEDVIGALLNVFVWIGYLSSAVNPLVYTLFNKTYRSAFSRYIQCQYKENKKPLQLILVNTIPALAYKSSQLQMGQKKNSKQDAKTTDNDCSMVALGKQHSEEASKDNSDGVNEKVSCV

[20] = molecular target: β1 (Homo sapiens, UniProt P08588); assay: NIMH PDSP competitive binding, β1; details: primary binding assay
[21] = molecular target: α2C (Homo sapiens, UniProt P18825); assay: NIMH PDSP competitive binding, α2C; details: [3H]rauwolscine; cloned receptor; mean ± SEM
[22] = molecular target: 5-HT6 (Homo sapiens, UniProt P50406); assay: NIMH PDSP competitive binding, 5-HT6; details: [3H]LSD; cloned receptor; mean ± SEM
[23] = molecular target: D5 (Homo sapiens, UniProt P21918); assay: NIMH PDSP competitive binding, D5; details: [3H]SCH23390; cloned receptor; mean ± SEM
Sequence of D5 (P21918 whole entry): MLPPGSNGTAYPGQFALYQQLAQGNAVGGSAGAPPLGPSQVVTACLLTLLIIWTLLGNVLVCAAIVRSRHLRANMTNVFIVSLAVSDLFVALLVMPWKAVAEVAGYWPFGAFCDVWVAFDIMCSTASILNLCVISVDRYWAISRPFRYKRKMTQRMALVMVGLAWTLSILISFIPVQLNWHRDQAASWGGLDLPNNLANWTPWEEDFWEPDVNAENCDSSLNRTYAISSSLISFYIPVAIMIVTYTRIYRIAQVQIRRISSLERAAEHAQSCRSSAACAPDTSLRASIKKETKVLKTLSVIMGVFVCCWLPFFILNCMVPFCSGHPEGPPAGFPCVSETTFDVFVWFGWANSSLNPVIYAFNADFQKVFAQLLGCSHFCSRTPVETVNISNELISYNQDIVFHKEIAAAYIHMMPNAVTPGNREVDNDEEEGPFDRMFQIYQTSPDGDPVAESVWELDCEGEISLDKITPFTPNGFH

[24] = molecular target: α2A (Homo sapiens, UniProt P08913); assay: NIMH PDSP competitive binding, α2A; details: [3H]rauwolscine; cloned receptor; mean ± SEM
[25] = molecular target: H3 (Cavia porcellus, UniProt Q9JI35); assay: NIMH PDSP competitive binding, H3; details: primary binding assay
[26] = molecular target: α1B (Homo sapiens, UniProt P35368); assay: NIMH PDSP competitive binding, α1B; details: [3H]prazosin; cloned receptor; mean ± SEM
Sequence of α1B (P35368 whole entry): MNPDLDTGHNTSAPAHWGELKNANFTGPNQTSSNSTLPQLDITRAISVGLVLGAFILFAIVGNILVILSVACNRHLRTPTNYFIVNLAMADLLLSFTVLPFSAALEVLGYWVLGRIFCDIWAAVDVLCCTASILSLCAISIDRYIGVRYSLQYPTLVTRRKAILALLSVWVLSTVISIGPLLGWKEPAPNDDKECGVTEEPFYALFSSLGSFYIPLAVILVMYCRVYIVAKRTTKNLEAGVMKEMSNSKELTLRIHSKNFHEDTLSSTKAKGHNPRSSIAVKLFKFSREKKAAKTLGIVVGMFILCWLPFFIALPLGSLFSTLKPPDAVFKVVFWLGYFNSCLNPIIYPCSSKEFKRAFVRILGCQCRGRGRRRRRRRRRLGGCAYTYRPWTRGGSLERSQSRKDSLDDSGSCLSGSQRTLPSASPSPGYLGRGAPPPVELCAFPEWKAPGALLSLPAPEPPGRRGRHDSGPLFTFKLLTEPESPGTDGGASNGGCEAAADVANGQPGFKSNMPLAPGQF

[27] = molecular target: D3 (Homo sapiens, UniProt P35462); assay: NIMH PDSP competitive binding, D3; details: [3H]N-methylspiperone; cloned receptor; mean ± SEM
[28] = molecular target: 5-HT1B (Homo sapiens, UniProt P28222); assay: NIMH PDSP competitive binding, 5-HT1B; details: [3H]GR125743; cloned receptor; mean ± SEM
[29] = molecular target: 5-HT2C (Homo sapiens, UniProt P28335); assay: NIMH PDSP competitive binding, 5-HT2C
[30] = molecular target: T3, 5-HT2A; assay: Gq-mediated calcium flux in HEK293 cells, h5-HT2A; assay type: cell-based
[31] = molecular target: H2 (Homo sapiens, UniProt P25021); assay: NIMH PDSP competitive binding, H2; details: [3H]tiotidine; cloned receptor; mean ± SEM
Sequence of H2 (P25021 whole entry): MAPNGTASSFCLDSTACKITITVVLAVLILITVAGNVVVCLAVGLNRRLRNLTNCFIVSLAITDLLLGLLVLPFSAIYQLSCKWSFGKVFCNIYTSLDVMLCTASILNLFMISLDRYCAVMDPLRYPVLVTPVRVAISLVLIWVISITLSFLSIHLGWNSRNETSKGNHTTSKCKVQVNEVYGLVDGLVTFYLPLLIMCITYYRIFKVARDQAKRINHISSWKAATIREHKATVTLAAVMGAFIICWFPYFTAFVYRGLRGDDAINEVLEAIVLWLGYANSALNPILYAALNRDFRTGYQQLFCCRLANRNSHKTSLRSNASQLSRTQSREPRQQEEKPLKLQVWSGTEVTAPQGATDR

[32] = molecular target: D2 (Homo sapiens, UniProt P14416); assay: NIMH PDSP competitive binding, D2; details: [3H]N-methylspiperone; cloned receptor; mean ± SEM
[33] = tested on: 5-HT2A sites labeled with [3H]ketanserin; details: rat frontal cortex / forebrain homogenate; ref Huang et al. 1994; cited from earlier work
[34] = molecular target: [125I]DOI-labeled sites; details: read-out: Ki at [125I]DOI-labeled sites; ref Huang et al. 1994; cited from earlier work
[35] = tested on: rats trained to discriminate saline from LSD; details: ref Huang et al. 1994, cited from earlier work; for potency in rats trained to discriminate saline from LSD: rat drug discrimination
[36] = tested on: [125I]DOI-labeled sites; assay: Binding to [125I]DOI-labeled sites; parameters: species or system rat; details: from Ki values of Huang et al. 1994
[37] = molecular target: β1; details: ref Nichols et al. 2002; cited from earlier work
[38] = molecular target: α2-adrenoceptors; details: [3H]clonidine, rat cortex; ref Leysen 1989; Marona-Lewicka and Nichols 1995; cited from earlier work
[39] = molecular target: β2; details: ref Nichols et al. 2002; cited from earlier work
[40] = molecular target: H1 receptors; details: ref Nichols et al. 2002; Rickli et al. 2015; cited from earlier work
[41] = tested on: C57BL/6J mice; details: HTR under equivalent conditions; ref Halberstadt and Geyer 2013; cited from earlier work
[42] = IP, first 20-min of the test session
[43] = Ca2+ mobilization, HEK293 cells
[44] = percent 5-HT maximum response, mean ± SEM

SMILES: CCCN(C)C(=O)[C@@H]1C=C2c3cccc4[nH]cc(c34)C[C@H]2N(C)C1 [LAMPA, N-methyl-N-propyl lysergamide]
- HTR Counts (Mean ± SEM) ([1]; 0.1 mg/kg IP, 20 min): 15.8 ± 2.7
- HTR Counts (Mean ± SEM) ([1]; 0.3 mg/kg IP, 20 min): 31.0 ± 2.2
- HTR Counts (Mean ± SEM) ([1]; 1 mg/kg IP, 20 min): 19.5 ± 3.2
- HTR Counts (Mean ± SEM) ([1]; 3 mg/kg IP, 20 min): 7.4 ± 4.3
- ED50, nmol/kg (95% CI) [1, 42]: 358.3 (241.1–532.4) nmol/kg
- ED50, μg/kg (95% CI) [1, 42]: 115.9 (78.0–172.2) μg/kg
- effect in hallucinogen-experienced subjects ([2]; 100 μg p.o., six subjects, ref Abramson and Rolo 1967): no effect in four subjects and produced effects consistent with a threshold dose of LSD in two subjects

SMILES: CCN(C(=O)[C@@H]1C=C2c3cccc4[nH]cc(c34)C[C@H]2N(C)C1)C1CC1 [ECPLA, N-ethyl-N-cyclopropyl lysergamide]
- Ki [3]: 5.3 ± 1.3 nM
- Ki ([4]; [3H]histamine, cloned receptor, IC50 > 10 μM in the primary binding assay): > 10000 nM
- displacement at 10 μM ([4]; primary binding assay, 10 μM): < 50%
- Ki [5]: 8.6 ± 4.2 nM
- Ki [6]: 502 ± 122 nM
- Ki [7]: 12.6 ± 1.9 nM
- HTR Counts (Mean ± SEM) ([1]; 0.1 mg/kg IP, 30 min): 17.7 ± 2.6
- HTR Counts (Mean ± SEM) ([1]; 0.3 mg/kg IP, 30 min): 34.6 ± 5.1
- HTR Counts (Mean ± SEM) ([1]; 1 mg/kg IP, 30 min): 28.2 ± 2.6
- ED50, nmol/kg (95% CI) ([1]; IP, entire 30-min test session): 317.2 (213.2–471.9) nmol/kg
- ED50, μg/kg (95% CI) ([1]; IP, entire 30-min test session): 130.2 (87.5–193.7) μg/kg
- dose of peak HTR response ([1]; biphasic inverted-U-shaped dose-response, IP): 0.3 mg/kg
- Ki ([8]; [3H]pyrilamine, cloned receptor, IC50 > 10 μM in the primary binding assay): > 10000 nM
- displacement at 10 μM ([8]; primary binding assay, 10 μM): < 50%
- Ki ([9]; [3H]CGP12177, cloned receptor, IC50 > 10 μM in the primary binding assay): > 10000 nM
- displacement at 10 μM ([9]; primary binding assay, 10 μM): < 50%
- Ki [10]: > 10000 nM
- Ki [11]: 92.3 ± 11.9 nM
- Ki [12]: 62.3 ± 15.1 nM
- EC50 [13, 43]: 36.7 nM
- pEC50 ± SEM [13, 43]: 7.44 ± 0.06
- Emax % 5-HT [13, 44]: 73 % 5-HT and 73 ± 2 % 5-HT
- Ki [14]: 2420 ± 639 nM
- Ki [15]: 3.2 ± 0.5 nM
- Ki [16]: > 10000 nM
- EC50 [17, 43]: 183 nM
- pEC50 ± SEM [17, 43]: 6.74 ± 0.09
- Emax % 5-HT [17, 44]: 73 % 5-HT and 73 ± 3 % 5-HT
- Ki [18]: 27.3 ± 11.5 nM
- Ki [19]: 16.5 ± 6 nM
- displacement at 10 μM [20]: < 50%
- Ki [21]: 438 ± 118 nM
- Ki [22]: 21.7 ± 4.4 nM
- Ki [23]: 1500 ± 386 nM
- Ki [24]: 144 ± 64 nM
- displacement at 10 μM [25]: < 50%
- Ki [26]: 1950 ± 152 nM
- Ki [27]: 104 ± 29 nM
- Ki [28]: 42.3 ± 8.7 nM
- fold lower affinity than LSD for the 5-HT2C receptor ([29]; ECPLA Ki 85.7 nM vs LSD Ki 30 nM): ~3 fold
- Ki ([29]; [3H]mesulergine, cloned receptor, mean ± SEM): 85.7 ± 31.2 nM
- EC50 [30, 43]: 14.6 nM
- pEC50 ± SEM [30, 43]: 7.84 ± 0.04
- Emax % 5-HT [30, 44]: 91 % 5-HT and 91 ± 1 % 5-HT
- Ki [31]: 890 ± 137 nM
- Ki [32]: 150 ± 32 nM

SMILES: CC(C)N(C)C(=O)[C@@H]1C=C2c3cccc4[nH]cc(c34)C[C@H]2N(C)C1 [MIPLA, N-methyl-N-isopropyl lysergamide]
- HTR Counts (Mean ± SEM) ([1]; 0.1 mg/kg IP, 30 min): 12.3 ± 1.1
- HTR Counts (Mean ± SEM) ([1]; 0.2 mg/kg IP, 30 min): 31.8 ± 1.9
- HTR Counts (Mean ± SEM) ([1]; 0.4 mg/kg IP, 30 min): 26.6 ± 3.1
- ED50, nmol/kg (95% CI) ([1]; IP, entire 30-min test session): 421.7 (360.5–493.1) nmol/kg
- ED50, μg/kg (95% CI) ([1]; IP, entire 30-min test session): 136.4 (116.6–159.5) μg/kg
- doses producing LSD-like psychedelic effects ([2]; human subjects, ref Shulgin 2016): 180 to 300 µg
- potency as a psychedelic in man relative to LSD ([2]; ref Shulgin 2016): one-third
- fold lower affinity than LSD at [3H]ketanserin-labeled 5-HT2A sites [33]: 6 fold
- Ki [34]: 1.75 nM
- potency in rats trained to discriminate saline from LSD [35]: 0.036 mg/kg
- affinity relative to LSD at [125I]DOI-labeled sites [36]: about 82%

SMILES: CCN(C(=O)[C@@H]1C=C2c3cccc4[nH]cc(c34)C[C@H]2N(C)C1)C(C)C [EIPLA, N-ethyl-N-isopropyl lysergamide]
- fold lower affinity than LSD at [3H]ketanserin-labeled 5-HT2A sites [33]: three-fold
- fold lower potency than LSD in the rat drug discrimination paradigm [35]: ~3 fold

SMILES: CCN(CC)C(=O)[C@@H]1C=C2c3cccc4[nH]cc(c34)C[C@H]2N(C)C1 [LSD, (+)-Lysergic acid diethylamide]
- typical oral doses ([2]; oral, humans, ref Shulgin and Shulgin 1997): 60 to 200 µg
- Ki [34]: 1.43 nM
- Ki [37]: 140 nM
- Ki [38]: 37 to 82 nM
- Ki [39]: 740 nM
- Ki [40]: 1100 to 1500 nM
- potency in rats trained to discriminate saline from LSD [35]: 0.021 mg/kg
- ED50 [41]: 132.8 nmol/kg
